Series [1] deals with HCT-116. The series is described as follows: Antiproliferative activity against human HCT-116 cells incubated for 48 hrs by CCK-8 assay. Type of series: functional, cell-based. The conditions noted are these: HCT-116, 48 h.
In series [2] the test system is HepG2. The series is described as follows: Antiproliferative activity against human HepG2 cells incubated for 48 hrs by CCK-8 assay. In kind it is functional, cell-based. The conditions noted are these: HepG2, 48 h.
The subject of series [3] is SW480. Description: Antiproliferative activity against human SW480 cells incubated for 48 hrs by CCK-8 assay. In kind it is functional, cell-based. The conditions noted are these: SW480, 48 h.
Series [4] has as its system HeLa. The series is described as follows: Antiproliferative activity against human HeLa cells incubated for 48 hrs by CCK-8 assay. In kind it is functional, cell-based.
In series [5] the test system is MDA-MB-231. The series is described as follows: Antiproliferative activity against human MDA-MB-231 cells incubated for 48 hrs by CCK-8 assay. The conditions noted are these: MDA-MB-231, 48 h. Type of series: functional, cell-based.
Series [6] in a line: Antiproliferative activity against human HEK293T cells incubated for 48 hrs by CCK-8 assay. Type of series: toxicity, cell-based, HEK-293T.
For series [7], the system named is HCT-116. Description: Inhibition of colony formation in human HCT-116 cells incubated with compound for 24 hrs followed by media replacement and measured after 10 days by crystal violet staining based assay. In kind it is functional, cell-based. To be noted: dose 0.5-2 µM.
The test system of series [8] is HCT-116. Description: Inhibition of colony formation in human HCT-116 cells at 2 uM incubated with compound for 24 hrs followed by media replacement and measured after 10 days by crystal violet staining based assay. In kind it is functional.
Series [9] addresses Tubulin (Sus scrofa, UniProt P02554+P02550). The series is described as follows: Inhibition of pig brain tubulin polymerization incubated for […] by spectrophotometric method. In kind it is tissue-based.
Series [10] deals with HCT-116. Description: Induction of cell cycle arrest in human HCT-116 cells assessed as increase in G2/M phase cells incubated for 48 hrs by PI staining based flow cytometry analysis. Type of series: functional. The conditions noted are these: dose 0.5-2 µM.
The test system of series [11] is HCT-116. Description: Induction of apoptosis in human HCT-116 cells assessed as viable cells at 0.125 uM incubated for 24 hrs by Annexin V and PI staining based flow cytometry analysis (reference value: 99.63%). Type of series: functional. The conditions noted are these: read-out: Activity.
In series [12] the test system is HCT-116. The series is described as follows: Induction of apoptosis in human HCT-116 cells assessed as early apoptotic cells at 0.125 uM incubated for 24 hrs by Annexin V and PI staining based flow cytometry analysis (reference value: 0.26%). Type of series: functional.
For series [13], the system named is HCT-116. Description: Induction of apoptosis in human HCT-116 cells assessed as late apoptotic cells at 0.125 uM incubated for 24 hrs by Annexin V and PI staining based flow cytometry analysis (reference value: 0.07%). In kind it is functional.
Series [14] concerns HCT-116. Description: Induction of apoptosis in human HCT-116 cells assessed as necrotic cells at 0.125 uM incubated for 24 hrs by Annexin V and PI staining based flow cytometry analysis (reference value: 0.04%). Type of series: functional.
In series [15] the test system is HCT-116. The series is described as follows: Induction of apoptosis in human HCT-116 cells assessed as viable cells at 0.5 uM incubated for 24 hrs by Annexin V and PI staining based flow cytometry analysis (reference value: 99.63%). In kind it is functional. To be noted: read-out: Activity.
In series [16] the test system is HCT-116. The series is described as follows: Induction of apoptosis in human HCT-116 cells assessed as early apoptotic cells at 0.5 uM incubated for 24 hrs by Annexin V and PI staining based flow cytometry analysis (reference value: 0.26%). Type of series: functional.
The subject of series [17] is HCT-116. Description: Induction of apoptosis in human HCT-116 cells assessed as late apoptotic cells at 0.5 uM incubated for 24 hrs by Annexin V and PI staining based flow cytometry analysis (reference value: 0.07%). In kind it is functional.
For series [18], the system named is HCT-116. The series is described as follows: Induction of apoptosis in human HCT-116 cells assessed as necrotic cells at 0.5 uM incubated for 24 hrs by Annexin V and PI staining based flow cytometry analysis (reference value: 0.04%). Type of series: functional.
Series [19] relates to HCT-116. Description: Induction of apoptosis in human HCT-116 cells assessed as viable cells at 2 uM incubated for 24 hrs by Annexin V and PI staining based flow cytometry analysis (reference value: 99.63%). In kind it is functional. The conditions noted are these: read-out: Activity.
The subject of series [20] is HCT-116. Description: Induction of apoptosis in human HCT-116 cells assessed as early apoptotic cells at 2 uM incubated for 24 hrs by Annexin V and PI staining based flow cytometry analysis (reference value: 0.26%). Type of series: functional.
The test system of series [21] is HCT-116. The series is described as follows: Induction of apoptosis in human HCT-116 cells assessed as late apoptotic cells at 2 uM incubated for 24 hrs by Annexin V and PI staining based flow cytometry analysis (reference value: 0.07%). Type of series: functional.
The subject of series [22] is HCT-116. Description: Induction of apoptosis in human HCT-116 cells assessed as necrotic cells at 2 uM incubated for 24 hrs by Annexin V and PI staining based flow cytometry analysis (reference value: 0.04%). In kind it is functional.
The target in series [23] is T1, Tubulin (Homo sapiens) (UniProt P68371+Q9H4B7+P0DPH7+P68366+Q13509+Q71U36+P04350+Q3ZCM7+P07437+P68363+Q9BQE3+Q6PEY2+Q13885+Q9BVA1+Q9BUF5). The series is described as follows: Induction of microtubule depolymerization in human HCT-116 cells assessed as appearance of short microtubules at 40 nM by immunofluorescent assay. Type of series: cell-based.
Series [24] deals with T1, Tubulin (Homo sapiens). Description: Induction of microtubule depolymerization in human HCT-116 cells assessed as appearance of short microtubules at 160 nM by immunofluorescent assay. Type of series: cell-based.
The target of series [25] is T1, Tubulin (Homo sapiens). Description: Induction of microtubule depolymerization in human HCT-116 cells assessed as appearance of microtubules wrapped around nucleus at 40 nM by immunofluorescent assay. In kind it is cell-based.
Series [26] addresses T1, Tubulin (Homo sapiens). The series is described as follows: Induction of microtubule depolymerization in human HCT-116 cells assessed as appearance of microtubules wrapped around nucleus at 160 nM by immunofluorescent assay. Type of series: cell-based.
A short description of series [27]: Metabolic stability in human liver microsomes assessed as half life preincubated for 2 hrs followed by NADPH regenerating system addition and measured upto 4 hrs by LC-MS method. The conditions noted are these: time < 6 hrs. Type of series: ADME, Microsome.
A short description of series [28]: Metabolic stability in rat liver microsomes assessed as half life preincubated for 2 hrs followed by NADPH regenerating system addition and measured upto 4 hrs by LC-MS method. In kind it is ADME, Microsome. To be noted: time < 6 hrs.
The test system of series [29] is HCT-116. The series is described as follows: Antitumor activity against human HCT-116 cells xenografted in nude mouse assessed as reduction in tumor volume at 50 mg/kg, po administered for 20 days and measured every 2 days. The conditions noted are these: time 20 day. Type of series: functional. More on the design: scale not given: the % may be the effect or the level left.

Series [30] relates to HCT-116. The series is described as follows: Antitumor activity against human HCT-116 cells xenografted in nude mouse assessed as reduction in tumor weight at 50 mg/kg, po administered for 20 days and measured every 2 days. More on the design: scale not given: the % may be the effect or the level left. In kind it is functional. To be noted: time 20 day.
The subject of series [31] is HCT-116. Description: Antitumor activity against human HCT-116 cells xenografted in nude mouse assessed as reduction in tumor volume at 100 mg/kg, po administered for 20 days and measured every 2 days. Type of series: functional, organism-based. The conditions noted are these: time 20.0 day.
Series [32] concerns HCT-116. The series is described as follows: Antitumor activity against human HCT-116 cells xenografted in nude mouse assessed as reduction in tumor weight at 100 mg/kg, po administered for 20 days and measured every 2 days. In kind it is functional, organism-based. The conditions noted are these: time 20.0 day.
Series [33] can be described thus: Toxicity in mouse xenografted with human HCT-116 cells assessed as reduction in body weight at 50 to 100 mg/kg, po administered for 20 days and measured every 2 days. The conditions noted are these: in vivo, 480 h, dose 50-100 mg/kg, time 20 day. In kind it is organism-based.
Series [34] can be described thus: Toxicity in mouse xenografted with human HCT-116 cells assessed as reduction in liver damage at 50 to 100 mg/kg, po administered for 20 days and measured every 2 days by H and E staining based method. In kind it is organism-based. The conditions noted are these: in vivo, 480 h, dose 50-100 mg/kg, time 20 day.
A short description of series [35]: Toxicity in mouse xenografted with human HCT-116 cells assessed as reduction in kidney damage at 50 to 100 mg/kg, po administered for 20 days and measured every 2 days by H and E staining based method. In kind it is organism-based. To be noted: in vivo, 480 h, dose 50-100 mg/kg, time 20 day.
A short description of series [36]: Toxicity in mouse xenografted with human HCT-116 cells assessed as reduction in body weight at 50 mg/kg, po administered for 20 days and measured every 2 days. In kind it is organism-based. To be noted: in vivo, 480 h, time 20 day.
Series [37] in a line: Toxicity in mouse xenografted with human HCT-116 cells assessed as reduction in liver damage at 50 mg/kg, po administered for 20 days and measured every 2 days by H and E staining based method. In kind it is organism-based. The conditions noted are these: in vivo, 480 h, time 20 day.
Series [38] is described as follows: Toxicity in mouse xenografted with human HCT-116 cells assessed as reduction in kidney damage at 50 mg/kg, po administered for 20 days and measured every 2 days by H and E staining based method. Type of series: organism-based. To be noted: in vivo, 480 h, time 20 day.

Here are results for two molecules from ChEMBL document CHEMBL5360544, “Design, synthesis, and biological evaluation of diaryl heterocyclic derivatives targeting tubulin polymerization with potent anticancer activities” (Eur J Med Chem, 2023).

Calls of active or inactive are those of the source. The calls are words filed in the database; no cut-off is given here. Some results are limits rather than exact numbers.

Consider `COc1cc(-c2ccnn2-c2ccc(N)cc2)cc(OC)c1OC`, for which the IC50 came to 2.65 µM in series [1]; 1.54 µM in series [2]; 37.5 µM in series [3]; 24.6 µM in series [4]; 11.4 µM in series [5]; 8.4 µM in [9]. For the same molecule, the IC50 at 48 h in series [6] was above 80 µM. Besides, the inhibition result in [7] is “Dose-Dependent Effect”. In addition, the inhibition at 2 µM in series [8] was found to be 100%. Also, the Activity result in [10] was “Dose-Dependent Effect”; in series [12], 46.19%; in series [13], 49.45%; in [14] it was 2.17%; in [16], 61.42%; in series [17], 28.79%. For the same molecule, the Activity in series [18] was 4.87%; in series [20], 75.68%; in [21], 19.38%; in [22], 1.72%; in series [29], 44.1%; in series [30], 27%. Besides, the Activity entry in [33], in series [34] and in series [35] was “Non-Toxic” throughout. Also, the viability at 0.125 µM in series [11] is 2.2%. Moreover, the viability at 0.5 µM in [15] was 4.92%. Further, in [19], the viability at 2 µM was 3.22%. The result in series [23], in [24], in series [25] and in series [26] was Active. Further, the half-life in series [27] amounted to 106 min; in series [28], 6.9 min. Further, the result in series [31] and in [32] was inactive.

As for `COc1ccc(/C=C\c2cc(OC)c(OC)c(OC)c2)cc1O` [COMBRETASTATIN A4], the IC50 in series [1] was 2.32 µM; in series [2], 1.36 µM; in [3] it was 40 µM; in series [4], 0.63 µM; in [5], 2.13 µM. Further, in [6], the IC50 at 48 h was above 80 µM. Also, the values for the half-life in series [27] and in series [28] were 9.5 min and 2.3 min, respectively. The Activity in series [29] is listed as 31.4%; in series [30], 28.8%; in series [36], “Non-Toxic”; in [37] it was “Non-Toxic”; in series [38], “Non-Toxic”.
